Like-named read-outs stand apart in the source and are kept apart here.
Molecular target: T1, XccFPR (Xanthomonas citri pv. citri, UniProt A0AAI7ZED9)
T1 sequence (A0AAI7ZED9 1-259): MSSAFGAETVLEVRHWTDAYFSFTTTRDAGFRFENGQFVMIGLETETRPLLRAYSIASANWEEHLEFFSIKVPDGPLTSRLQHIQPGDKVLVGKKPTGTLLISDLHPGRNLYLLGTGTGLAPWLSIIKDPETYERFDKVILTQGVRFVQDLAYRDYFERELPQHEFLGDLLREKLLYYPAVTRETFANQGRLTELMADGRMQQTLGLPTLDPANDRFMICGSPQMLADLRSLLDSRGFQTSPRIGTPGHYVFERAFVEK
Assay: NADPH-dependent DCPIP diaphorase activity of XccFPR, dose-response of inhibitors
Format: biochemical, Xanthomonas citri subsp. citri
Protocol: When assayed in regular cuvettes, the DCPIP diaphorase activity of XccFPR was determined at 25 °C using a Cary 100 (Agilent Technologies Inc., Santa Clara, CA, USA) spectrophotometer as previously established. […] Positive controls (without any hit compound) were included in every reaction set. […] The DMSO concentration was kept at 2% in all samples. All kinetic experiments were performed in triplicate. The effect of the inhibitors on Km and kcat was determined by fitting the datasets to the Michaelis-Menten model. Additionally, data were globally fit to either Lineweaver-Burk equations for uncompetitive or non-competitive inhibition, yielding Ki for each compound (Equations (1) and (2), respectively).

[1] = 25 °C, 50 mM Tris/HCl, 2% DMSO, pH 8.0, 20 nM XccFPR, 95 µM DCPIP, 50 μM NADPH
[2] = 25 °C, 50 mM Tris/HCl, 2% DMSO, pH 8.0, 20 nM XccFPR, 95 µM DCPIP, 50 μM NADPH, compound 0–800 μM
[3] = 25 °C, 2% DMSO, pH 8.0, 20 nM XccFPR, 95 µM DCPIP, 50 μM NADPH

O=c1c2ccccc2[se]n1-c1ccccc1 [C2, 2-Phenyl-1,2-benzoselenazol-3-one(ebselen), reference compound]
ICmax (concentration causing maximal inhibition) [1]: 300 ± 1 µM
IC50 [2]: 27 ± 1 µM
% Inhibition at ICmax [3]: over 90%
% Inhibition at ICmax (25 °C, 2% DMSO, pH 8.0, 20 nM XccFPR, 95 µM DCPIP, 50 μM NADPH, listed as 2): 95 ± 3%

O=[N+]([O-])c1ccc(Oc2c(Cl)cccc2Cl)cc1 [C4, 1,3-dichloro-2-(4-nitrophenoxy)benzene]
IC50: 36 ± 1 µM
% Inhibition at ICmax [3]: 86 ± 1%

O=C(CSc1nc2cc(Cl)ccc2o1)Nc1cc(C(F)(F)F)cc(C(F)(F)F)c1 [C5, N-[3,5-bis(trifluoromethyl)phenyl]-2-[(5-chloro-1,3-benzoxazol-2-yl)sulfanyl]acetamide]
IC50: 46 ± 1 µM

CC(C)N(C(=O)c1ccc(-c2ccccc2F)cc1)C(C)C [C6, 4-(2-fluorophenyl)-N,N-bis(propan-2-yl)benzamide]
IC50: > 605 µM
% Inhibition at ICmax [3]: ~70%

C#CC1(NC(=O)NCCCCCCNC(=O)NC2(C#C)CCCCC2)CCCCC1 [C7, 3-(1-ethynylcyclohexyl)-1-(6-{[(1-ethynylcyclohexyl)carbamoyl]amino}hexyl) urea]
IC50: 85 ± 16 µM
% Inhibition at ICmax [3]: 97 ± 7%

Clc1ccc2sc(SCc3ccccc3)nc2c1 [C8, 2-(benzylsulfanyl)-5-chloro-1,3-benzothiazole]
IC50: 79 ± 1 µM
% Inhibition at ICmax [3]: 88 ± 9%

Cc1oc(C(=O)NNC(=O)Nc2cccc(C(F)(F)F)c2)nc1-c1ccccc1 [C9, 5-methyl-4-phenyl-N-({[3-(trifluoromethyl)phenyl]carbamoyl}amino)-1,3-oxazole-2-carboxamide]
IC50: 147 ± 1 µM
% Inhibition at ICmax [3]: 60 ± 4%

Nc1c(Cl)cc(C(=O)Nc2cc(Cl)c(Cl)cc2Cl)cc1Cl [C10, 4-amino-3,5-dichloro-N-(2,4,5-trichlorophenyl)benzamide]
IC50: 98 ± 1 µM
% Inhibition at ICmax [3]: 57 ± 7%

COc1cc(C2SCCS2)cc([N+](=O)[O-])c1OS(=O)(=O)c1cc(Cl)ccc1Cl [C11, 4-(1,3-dithiolan-2-yl)-2-methoxy-6-nitrophenyl 2,5-dichlorobenzene-1-sulfonate]
IC50: 78 ± 1 µM
% Inhibition at ICmax [3]: 92 ± 5%

N#CC(NCc1ccccc1)c1ccc(Cl)c(Cl)c1 (stereo not shown) [C13, 2-(benzylamino)-2-(3,4-dichlorophenyl)acetonitrile]
IC50: 95 ± 1 µM
% Inhibition at ICmax [3]: 80 ± 3%

CCOC(=O)c1c(C)c(C#N)c(NC(=O)c2ccccc2)n1-c1ccccc1 [C14, ethyl 5-benzamido-4-cyano-3-methyl-1-phenyl-1H-pyrrole-2-carboxylate]
IC50: 127 ± 1 µM
% Inhibition at ICmax [3]: 85 ± 4%

O=C(CCn1c(=O)oc2ccccc21)Sc1ccc(Cl)cc1Cl [C15, 3-{3-[(2,4-dichlorophenyl)sulfanyl]-3-oxopropyl}-2,3-dihydro-1,3-benzoxazol-2-one]
IC50: 30 ± 1 µM

COc1ccc(C(C)=O)cc1CO/N=C1\CSCc2ccccc21 [C16, 1-{3-[({[(4Z)-3,4-dihydro-1H-2-benzothiopyran-4-ylidene]amino}oxy)methyl]-4-methoxyphenyl}ethan-1-one]
IC50: 58 ± 1 µM
% Inhibition at ICmax [3]: 79 ± 6%

Cn1cc(Br)c(/C=N/Nc2ccc(Cl)cc2Cl)n1 [C17, 4-bromo-3-[(1E)-[2-(2,4-dichlorophenyl)hydrazin-1-ylidene]methyl]-1-methyl-1H-pyrazole]
IC50: 27 ± 2 µM

Nc1ccccc1Sc1cc(C(F)(F)F)cc([N+](=O)[O-])c1Sc1ccccc1N [C18, 2-({2-[(2-aminophenyl)sulfanyl]-6-nitro-4-(trifluoromethyl)phenyl}sulfanyl)aniline]
IC50: 24 ± 1 µM

Cc1nc(-c2cc(C#N)c(SCCNS(=O)(=O)c3cccc(C(F)(F)F)c3)nc2C)cs1 [C19, N-(2-{[3-cyano-6-methyl-5-(2-methyl-1,3-thiazol-4-yl)pyridin-2-yl]sulfanyl}ethyl)-3-(trifluoromethyl)benzene-1-sulfonamide]
IC50: 17 ± 1 µM

Cc1cc(C)c2cc(C(=O)Nc3ccc4c(c3)OCO4)[nH]c2c1 [C20, N-(2H-1,3-benzodioxol-5-yl)-4,6-dimethyl-1H-indole-2-carboxamide]
IC50: 53 ± 2 µM
% Inhibition at ICmax [3]: 100 ± 1%

CCOC(=O)C1=C(C)NC(C)=C(C(=O)OCC)C1c1ccc(-c2cc(C(F)(F)F)ccc2Cl)o1 [C21, 3,5-diethyl 4-{5-[2-chloro-5-(trifluoromethyl)phenyl]furan-2-yl}-2,6-dimethyl-1,4-dihydropyridine-3,5-dicarboxylate]
IC50: 14 ± 1 µM
% Inhibition at ICmax [3]: 62 ± 7%

O=C1/C(=C/c2cccs2)CCC/C1=C\c1cccs1 [C22, (2E,6E)-2,6-bis[(thiophen-2-yl)methylidene]cyclohexan-1-one]
IC50: 58 ± 2 µM
% Inhibition at ICmax [3]: 100 ± 4%

N#CC(C#N)=C1SC=C(c2ccc(Cl)cc2)S1 [C23, 2-[4-(4-chlorophenyl)-2H-1,3-dithiol-2-ylidene]propanedinitrile]
IC50: > 604 µM
% Inhibition at ICmax [3]: 73 ± 3%

Cc1ccc(C)c(CSc2nc(C3CCCCC3)c(C#N)c(=O)[nH]2)c1 [C24, 4-cyclohexyl-2-{[(2,5-dimethylphenyl)methyl]sulfanyl}-6-oxo-1,6-dihydropyrimidine-5-carbonitrile]
IC50: 35 ± 1 µM
% Inhibition at ICmax [3]: 43 ± 4%

O=C(O/N=C/Nc1ncc(-c2ccc(Br)s2)s1)c1ccc([N+](=O)[O-])cc1 [C25, (E)-({[5-(5-bromothiophen-2-yl)-1,3-thiazol-2-yl]amino}methylidene)amino 4-nitrobenzoate]
IC50: 91 ± 1 µM
% Inhibition at ICmax [3]: ~91%

COC(=O)c1sccc1NC(=O)Cc1cccs1 [C26, methyl 3-[2-(thiophen-2-yl)acetamido]thiophene-2-carboxylate]
IC50: 33 ± 2 µM

CC(C)S(=O)(=O)c1c(SCC#N)sc(C#N)c1N [C27, 3-amino-5-[(cyanomethyl)sulfanyl]-4-(propane-2-sulfonyl)thiophene-2-carbonitrile]
IC50: 89 ± 1 µM
% Inhibition at ICmax [3]: 92 ± 3%

CCCCc1ccc(NC(=O)CSc2nc(C3CCCCC3)c(C#N)c(=O)[nH]2)c(C)c1 [C28, N-(4-butyl-2-methylphenyl)-2-[(5-cyano-4-cyclohexyl-6-oxo-1,6-dihydropyrimidin-2-yl)sulfanyl]acetamide]
IC50: > 652 µM
% Inhibition at ICmax [3]: 81 ± 2%

O=C(Nc1ccccc1-c1nc(-c2ccc(Cl)cc2)no1)C(F)(F)F [C29, N-{2-[3-(4-chlorophenyl)-1,2,4-oxadiazol-5-yl]phenyl}-2,2,2-trifluoroacetamide]
IC50: 11 ± 2 µM
% Inhibition at ICmax [3]: 27 ± 2%

O=C(O)c1c2c(nc3ccccc13)CSc1ccc(Cl)cc1-2 [C30, 2-chloro-6H-5-thia-7-azatetraphene-12-carboxylic acid]
IC50: 29 ± 1 µM

Brc1csc(C2SCCS2)c1 [C31, 2-(4-bromothiophen-2-yl)-1,3-dithiolane]
IC50: 90 ± 1 µM
% Inhibition at ICmax [3]: 85 ± 1%

Cc1ccc2oc(=O)n(CCC(=O)NNC(=O)c3nc(-c4cccs4)no3)c2c1 [C32, 3-(5-methyl-2-oxo-2,3-dihydro-1,3-benzoxazol-3-yl)-N'-[3-(thiophen-2-yl)-1,2,4-oxadiazole-5-carbonyl]propanehydrazide]
IC50: > 2720 µM
% Inhibition at ICmax [3]: ~56%

CCOC(=O)CNC(=O)CCc1cc(OC)c(OC)c(OC)c1 [C33, ethyl 2-[3-(3,4,5-trimethoxyphenyl)propanamido]acetate]
IC50: > 1920 µM
% Inhibition at ICmax [3]: ~53%

N#CC1=C(N)OC2=C(COc3ccc(F)cc32)C1c1ccc(Cl)cc1 (stereo not shown) [C34, 2-amino-4-(4-chlorophenyl)-9-fluoro-4H,5H-pyrano[3,2-c]chromene-3-carbonitrile]
IC50: 210 ± 1 µM
% Inhibition at ICmax [3]: ~87%

O=C(COC(=O)c1cccc(I)c1)c1ccccc1 [C35, 2-oxo-2-phenylethyl 3-iodobenzoate]
IC50: 63 ± 1 µM
% Inhibition at ICmax [3]: 100 ± 1%

O=C(Nc1cccc(Cl)c1)Nc1ccccc1NS(=O)(=O)c1cccs1 [D1, 3-(3-chlorophenyl)-1-[2-(thiophene-2-sulfonamido)phenyl]urea]
IC50: 76 ± 1 µM
% Inhibition at ICmax [3]: 98 ± 1%

O=C(Nc1cccc(Cl)c1)Nc1ccc(F)c(Cl)c1 [D3, 1-(3-Chloro-4-fluoro-phenyl)-3-(3-chloro-phenyl)-urea]
IC50: > 5000 µM

CSc1sc(NC(=O)N2CCOCC2)c(-c2ccc(Cl)cc2)c1C#N [D4, N-[3-(4-chlorophenyl)-4-cyano-5-(methylsulfanyl)thiophen-2-yl]morpholine-4-carboxamide]
IC50: 113 ± 1 µM
% Inhibition at ICmax [3]: 78 ± 2%

CSc1sc(C(=O)O)c(-c2cccc(Cl)c2)c1C#N [D6, 3-(3-chlorophenyl)-4-cyano-5-(methylsulfanyl)thiophene-2-carboxylic acid]
IC50: > 1500 µM

Cc1cccc(C)c1NC(=O)Nc1cccs1 [D7, 1-(2,6-dimethylphenyl)-3-thiophen-2-ylurea]
IC50: 151 ± 1 µM
% Inhibition at ICmax [3]: 84 ± 1%

benzalkonium chloride [C3, reference compound]
ICmax (concentration causing maximal inhibition) [1]: 300 ± 3 µM
IC50 [2]: 190 ± 1 µM
% Inhibition at ICmax [3]: 31 ± 8%

— paper PMC5943930, “Identification of Inhibitors Targeting Ferredoxin-NADP^+ Reductase from the Xanthomonas citri subsp. citri Phytopathogenic Bacteria” (Molecules : A Journal of Synthetic Chemistry and Natural …, 2017)
